{"source": "patent US6596512B1", "about": "(American Cyanamid Company, priority 1997, dated 2003)", "molecules": {"B1": {"name": "CeDAT1 (Caenorhabditis elegans) (protein)", "chain": "MQNATLPIDGPVNTEPKDPAREQWSGKLDFLLSVVGFAVDLGNIWRFPYLCFKNGGGVFLIPYSIMVLLTGVPLFYMELCLGQYYRKGAITTWGRICPLFKGIGYCVILTAFYVDFFYNVILAWGLHYLYTSFSFNLPWASCNNSYNSPACYEPHWSEDGTAMCRSANQSVSAEKISAAEEYFYKGFLGLHEANAPNSHVIRSVTDLGNVRWDIALSLFVVYLICYFSMWKGIHTSGKVVWFTALFPYVVLGILFIRGVTLPGWQNGIEYYLRPNFEMLKRPSVWQDAATQVFFSLGPGFGVLMAYSSYNDFHNNVYVDALFTSFINCATSFLSGFVIFSVLGYMSCKSGKPIEAVAQEGPGLVFVVYPEALSTMPYAPFWSVLFFLMLMTLGLDSSFGGSEAIITGLSDEFPILKKNREVFVGCLFAFYMVIGIAMCTEGGILIMEWLIIYGTTWGLLIAVFCEAMVIAYIYGLRQFVHDVKEMMGFRPGNYWKFCWSCAAPFILLSMITSNFINYQALTYQDYTYPTAANVIGIIFALSGASFIPLVGIYKFVNARGNTISEKWQRVTMPYRKRPNQTEYIPIPTTQPHSDIML"}}, "key": {"[1]": {"test_system": "CeDAT2 (Caenorhabditis elegans)", "sequence (Q03614 whole entry)": "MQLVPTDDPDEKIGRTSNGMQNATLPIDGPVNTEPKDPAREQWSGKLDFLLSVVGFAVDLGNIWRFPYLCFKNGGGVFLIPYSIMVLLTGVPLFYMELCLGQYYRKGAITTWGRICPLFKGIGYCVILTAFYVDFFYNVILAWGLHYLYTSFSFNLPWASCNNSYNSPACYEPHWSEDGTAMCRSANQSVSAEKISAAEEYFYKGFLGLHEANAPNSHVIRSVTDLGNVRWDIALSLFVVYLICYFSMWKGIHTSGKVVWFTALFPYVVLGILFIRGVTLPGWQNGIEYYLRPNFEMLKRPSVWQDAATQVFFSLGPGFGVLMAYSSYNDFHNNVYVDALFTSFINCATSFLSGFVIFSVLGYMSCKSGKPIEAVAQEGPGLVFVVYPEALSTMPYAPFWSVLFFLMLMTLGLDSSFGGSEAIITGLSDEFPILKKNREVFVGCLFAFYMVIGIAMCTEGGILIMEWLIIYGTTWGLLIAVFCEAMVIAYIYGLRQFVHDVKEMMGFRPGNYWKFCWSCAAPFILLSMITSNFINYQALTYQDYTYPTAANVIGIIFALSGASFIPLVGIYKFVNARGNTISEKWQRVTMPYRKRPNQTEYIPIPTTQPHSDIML", "type": "cell-based, C. elegans", "details": "radiolabeled substrates each at 50 nm, pCeDAT2"}, "CeDAT1 [2]": {"biological_target": "T1, CeDAT1 (Caenorhabditis elegans, UniProt Q03614)", "T1 sequence (Q03614 20-615)": "B1 chain", "type": "cell-based, C. elegans", "details": "radiolabeled substrates each at 50 nm, pCeDAT1"}, "CeDAT1 [3]": {"biological_target": "T1, CeDAT1", "experiment": "cell-based", "design": "species or system C. elegans"}, "CeDAT1 [4]": {"biological_target": "T1, CeDAT1", "experiment": "Saturation kinetics of catecholamine transport in pCeDAT1 transfected HeLa cells", "type": "cell-based, C. elegans", "details": "radiolabeled substrate"}, "[5]": {"substrate": "NC[C@H](O)c1ccc(O)c(O)c1", "experiment": "cells, lysate or membranes", "details": "37.0 °C"}}, "data": [{"molecule": "NCCc1c[nH]c2ccc(O)cc12", "note": "[5HT, Serotonin]", "values": [{"measurement": "Transport of radiolabeled substrate", "setting": "[1]", "value": "transported only at very low levels"}, {"measurement": "Transport of radiolabeled substrate", "setting": "CeDAT1 [2]", "value": "little or no transport"}]}, {"molecule": "NCCc1ccc(O)c(O)c1", "note": "[DA, Dopamine]", "values": [{"measurement": "Ki", "setting": "CeDAT1 [3]", "value": 146, "unit": "nM"}, {"measurement": "Potency as inhibitor of transport relative to L-NE", "setting": "CeDAT1 [3]; pCeDAT1, HeLa cells, DA versus L-NE", "value": "~10", "unit": "fold"}, {"measurement": "Extent of transport relative to NE", "setting": "CeDAT1 [2]", "value": "~2", "unit": "fold"}, {"measurement": "Vmax of transport", "setting": "CeDAT1 [4]", "value": 0.6, "unit": "pmol/10^6 cells/min"}]}, {"molecule": "CNC[C@H](O)c1ccc(O)c(O)c1", "note": "[Epi]", "values": [{"measurement": "Transport of radiolabeled substrate", "setting": "[1]", "value": "transported only at very low levels"}, {"measurement": "Transport of radiolabeled substrate", "setting": "CeDAT1 [2]", "value": "little or no transport"}]}, {"molecule": "Fc1ccc(C(OCCN2CCN(CCCc3ccccc3)CC2)c2ccc(F)cc2)cc1", "note": "[GBR12909]", "values": [{"measurement": "Ki", "setting": "CeDAT1 [3]", "value": 70, "unit": "nM"}]}, {"molecule": "NC[C@H](O)c1ccc(O)c(O)c1", "note": "[NE, Norepinephrine]", "values": [{"measurement": "Vmax of transport", "setting": "CeDAT1 [4]", "value": 0.46, "unit": "pmol/10^6 cells/min"}]}, {"molecule": "NCCc1ccc(O)cc1", "note": "[Tyramine]", "values": [{"measurement": "Ki", "setting": "CeDAT1 [3]", "value": 827, "unit": "nM"}]}, {"molecule": "COC(=O)[C@H]1[C@@H](OC(=O)c2ccccc2)C[C@@H]2CC[C@H]1N2C", "note": "[cocaine]", "values": [{"measurement": "Ki", "setting": "CeDAT1 [3]", "value": 3500, "unit": "nM"}]}, {"molecule": "OC1(c2ccc(Cl)cc2)c2ccccc2C2=NCCN21", "note": "(stereo not drawn) [mazindol]", "values": [{"measurement": "Ki", "setting": "CeDAT1 [3]", "value": 8, "unit": "nM"}]}, {"molecule": "CNCCC(Oc1ccccc1OC)c1ccccc1", "note": "(stereo not drawn) [nisoxetine]", "values": [{"measurement": "Ki", "setting": "CeDAT1 [3]", "value": 3, "unit": "nM"}]}, {"molecule": "B1", "values": [{"measurement": "Km", "setting": "[5]", "value": 4.1, "unit": "µM"}]}]}
